Key:
[1] = Terminal half life in B6 mouse at 50 mg/kg, po by UV-HPLC analysis; format: ADME, organism-based; conditions: in vivo; for half-life: B6, mouse, read-out: beta t1/2 (converted); for beta t1/2: mouse, BLD = below limit of detection
[2] = Terminal half life in B6 mouse at 25 mg/kg, ip by UV-HPLC analysis; format: ADME, organism-based; conditions: in vivo, read-out: beta t1/2 (converted)
[3] = Antiproliferative activity against VEGF-stimulated HUVEC cells assessed as reduction in cell viability at 10 nM preincubated for 1 hr followed by addition of VEGF measured after 72 hrs by MTT assay; format: functional; conditions: Homo sapiens

Compound | inhibition at 0.01 µM [3] [%] | further results
C#CCNC(=O)c1ccccc1Sc1ccc2c(/C=C/c3ccccn3)n[nH]c2c1 | – | half-life [1]: 0.9 h; half-life [2]: 1.4 h
O=C(c1cccc(NC(=O)c2ccccn2)c1)c1ccc2c(/C=C/c3ccccn3)n[nH]c2c1 | – | half-life [1]: 0.9 h; half-life [2]: 2.1 h
Cn1nc(C(C)(C)C)cc1C(=O)Nc1cccc(C(=O)c2ccc3c(/C=C/c4ccccn4)n[nH]c3c2)c1 | – | half-life [1]: 1.9 h; half-life [2]: 3.2 h
O=C(Nc1nccs1)c1ccccc1Sc1ccc2c(/C=C/c3ccccn3)n[nH]c2c1 | – | half-life [1]: 1.2 h; half-life [2]: 1.2 h
CCOCCNC(=O)c1ccccc1Sc1ccc2c(/C=C/c3ccccn3)n[nH]c2c1 | – | half-life [2]: 1.8 h
O=C(Nc1cccc(Oc2ccc3c(/C=C/c4ccccn4)n[nH]c3c2)c1)c1ccccc1 | – | half-life [2]: 2.4 h
O=C(c1cccc(NC(=O)C(O)c2ccccc2)c1)c1ccc2c(/C=C/c3ccccc3)n[nH]c2c1 (stereo unspecified) | 3 | –
O=C(Nc1cccc(Nc2ccc3c(/C=C/c4ccccc4)n[nH]c3c2)c1)C1C[C@H]2C[C@@H]1CCC2O (stereo partly specified) | -9 | –
O=C(CC1CC2CCC1C2)Nc1cccc(Nc2ccc3c(/C=C/c4ccccc4)n[nH]c3c2)c1 (stereo unspecified) | 87 | –
COc1ccccc1/C=C/C(=O)Nc1cccc(C(=O)c2ccc3c(/C=C/c4ccccc4)n[nH]c3c2)c1 | 47 | –
CN1CSCCC1C(=O)Nc1cccc(Nc2ccc3c(/C=C/c4ccccc4)n[nH]c3c2)c1 (stereo unspecified) | 0 | –
O=C(c1cccc(NC(=O)[C@H]2CCC[C@H]2O)c1)c1ccc2c(/C=C/c3ccccc3)n[nH]c2c1 | 39 | –
O=C(Cc1ccccc1)C(=O)Nc1cccc(C(=O)c2ccc3c(/C=C/c4ccccc4)n[nH]c3c2)c1 | -37 | –
O=C(Cn1ccc2ccccc21)Nc1cccc(Nc2ccc3c(/C=C/c4ccccc4)n[nH]c3c2)c1 | -7 | –
CN1CC(C(=O)Nc2cccc(Nc3ccc4c(/C=C/c5ccccc5)n[nH]c4c3)c2)CC1=O (stereo unspecified) | 20 | –
O=C(c1cccc(NC(=O)C2C[C@H]3C=C[C@H]2C3)c1)c1ccc2c(/C=C/c3ccccc3)n[nH]c2c1 (stereo partly specified) | 44 | –
O=C(Nc1cccc(C(=O)c2ccc3c(/C=C/c4ccccc4)n[nH]c3c2)c1)C1=C[C@@H](O)[C@@H](O)[C@H](O)C1 | -20 | –
Cc1cc(C(=O)Nc2cccc(C(=O)c3ccc4c(/C=C/c5ccccn5)n[nH]c4c3)c2)on1 | – | beta t1/2 [1]: Bld
Cc1cc(C(=O)Nc2cccc(Nc3ccc4c(/C=C/c5ccccc5)n[nH]c4c3)c2)nn1C | 95 | –
COC1CCCC(C(=O)Nc2cccc(Oc3ccc4c(/C=C/c5ccccc5)n[nH]c4c3)c2)C1 (stereo unspecified) | 91 | –
O=C(Cc1cccnc1)Nc1cccc(Nc2ccc3c(/C=C/c4ccccc4)n[nH]c3c2)c1 | 43 | –
O=C(/C=C/C1C[C@H]2C=C[C@H]1C2)Nc1cccc(C(=O)c2ccc3c(/C=C/c4ccccc4)n[nH]c3c2)c1 (stereo partly specified) | 37 | –
CN1CCC=C(C(=O)Nc2cccc(Oc3ccc4c(/C=C/c5ccccc5)n[nH]c4c3)c2)C1 | 43 | –
CC(C)ONC(=O)c1ccccc1Sc1ccc2c(/C=C/c3ccccn3)n[nH]c2c1 | – | half-life [1]: 1.1 h
CC(=O)N1CCC[C@@H]1C(=O)Nc1cccc(Oc2ccc3c(/C=C/c4ccccc4)n[nH]c3c2)c1 | 20 | –
C[C@@H](CC(=O)Nc1cccc(Nc2ccc3c(/C=C/c4ccccc4)n[nH]c3c2)c1)c1ccccc1 | 27 | –

Compound | inhibition at 0.01 µM [3] [%] | further results
Cc1ccc(C2(C(=O)Nc3cccc(C(=O)c4ccc5c(/C=C/c6ccccc6)n[nH]c5c4)c3)CC2)cc1 | 0 | –
CN(C)CCCC(=O)Nc1cccc(Oc2ccc3c(/C=C/c4ccccc4)n[nH]c3c2)c1 | 96 | –
CC1(C)C(C(=O)Nc2cccc(Oc3ccc4c(/C=C/c5ccccc5)n[nH]c4c3)c2)C1(C)C | 71 | –
O=C(c1cccc(NC(=O)C2C[C@H]3C[C@@H]2CCC3O)c1)c1ccc2c(/C=C/c3ccccc3)n[nH]c2c1 (stereo partly specified) | 27 | –
O=C(Nc1cccc(Oc2ccc3c(/C=C/c4ccccc4)n[nH]c3c2)c1)C1CC2C=CCC(C2)C1 (stereo unspecified) | 17 | –
O=C1CCC(C(=O)Nc2cccc(C(=O)c3ccc4c(/C=C/c5ccccc5)n[nH]c4c3)c2)CC1 | 10 | –
C/C(=C\C(=O)Nc1cccc(Oc2ccc3c(/C=C/c4ccccc4)n[nH]c3c2)c1)c1ccccc1C | 52 | –
CCC(C(=O)Nc1cccc(Nc2ccc3c(/C=C/c4ccccc4)n[nH]c3c2)c1)c1ccccc1C (stereo unspecified) | -3 | –
CC1(C)OC(=O)[C@H](CC(=O)Nc2cccc(C(=O)c3ccc4c(/C=C/c5ccccc5)n[nH]c4c3)c2)O1 | 19 | –
CC(=O)NC(C)(C)CC(=O)Nc1cccc(C(=O)c2ccc3c(/C=C/c4ccccc4)n[nH]c3c2)c1 | 35 | –
O=C(CCN1CCCCC1)Nc1cccc(Nc2ccc3c(/C=C/c4ccccc4)n[nH]c3c2)c1 | 30 | –
CC(=O)N1CCC[C@@H]1C(=O)Nc1cccc(Nc2ccc3c(/C=C/c4ccccc4)n[nH]c3c2)c1 | -5 | –
Cc1cc(C(=O)Nc2cccc(Nc3ccc4c(/C=C/c5ccccc5)n[nH]c4c3)c2)c(C)[nH]1 | 76 | –
C[C@@]12C[C@H]3C[C@H]1C[C@@]3(C(=O)Nc1cccc(Nc3ccc4c(/C=C/c5ccccc5)n[nH]c4c3)c1)C2 | 15 | –
CC1(C)OC(=O)CC1C(=O)Nc1cccc(Nc2ccc3c(/C=C/c4ccccc4)n[nH]c3c2)c1 (stereo unspecified) | 16 | –
Cc1cc(C(=O)Nc2cccc(Oc3ccc4c(/C=C/c5ccccc5)n[nH]c4c3)c2)n[nH]1 | 150 | –
O=C(Nc1cccc(C(=O)c2ccc3c(-c4nc5cccnc5[nH]4)n[nH]c3c2)c1)c1ccccc1 | – | beta t1/2 [1]: Bld
Cc1nc(S)sc1CC(=O)Nc1cccc(Oc2ccc3c(/C=C/c4ccccc4)n[nH]c3c2)c1 | 45 | –
O=C(Nc1cccc(Nc2ccc3c(/C=C/c4ccccc4)n[nH]c3c2)c1)C1CCOC1 (stereo unspecified) | -3 | –
O=C(Nc1cccc(Oc2ccc3c(/C=C/c4ccccc4)n[nH]c3c2)c1)C1CCOC1 (stereo unspecified) | 40 | –
O=C1C[C@H](C(=O)Nc2cccc(Nc3ccc4c(/C=C/c5ccccc5)n[nH]c4c3)c2)NC(=O)N1 | 17 | –
CC1(C)C(C(=O)Nc2cccc(Nc3ccc4c(/C=C/c5ccccc5)n[nH]c4c3)c2)C1(C)C | 25 | –
CC(=O)c1ccc(C(=O)Nc2cccc(Nc3ccc4c(/C=C/c5ccccc5)n[nH]c4c3)c2)s1 | 78 | –
CN(C)C(=S)SCC(=O)Nc1cccc(Oc2ccc3c(/C=C/c4ccccc4)n[nH]c3c2)c1 | 70 | –
O=C(Nc1cccc(Oc2ccc3c(/C=C/c4ccccc4)n[nH]c3c2)c1)C(O)c1ccccc1 (stereo unspecified) | 56 | –
Cc1cc(C(=O)Nc2cccc(C(=O)c3ccc4c(/C=C/c5ccccc5)n[nH]c4c3)c2)no1 | 50 | –

Compound | inhibition at 0.01 µM [3] [%] | further results
O=C(/C=C/C(=O)Nc1cccc(Oc2ccc3c(/C=C/c4ccccc4)n[nH]c3c2)c1)NCC1CC1 | 36 | –
O=C(/C=C/C1C[C@H]2C=C[C@H]1C2)Nc1cccc(Nc2ccc3c(/C=C/c4ccccc4)n[nH]c3c2)c1 (stereo partly specified) | 30 | –
Cn1cnc(CC(=O)Nc2cccc(Oc3ccc4c(/C=C/c5ccccc5)n[nH]c4c3)c2)c1 | 20 | –
CC(C)(C)[C@@H](O)C(=O)Nc1cccc(Nc2ccc3c(/C=C/c4ccccc4)n[nH]c3c2)c1 | 10 | –
CC1(C)C(C(=O)Nc2cccc(C(=O)c3ccc4c(/C=C/c5ccccc5)n[nH]c4c3)c2)C1(C)C | 51 | –
CC(C)CC(O)C(=O)Nc1cccc(Oc2ccc3c(/C=C/c4ccccc4)n[nH]c3c2)c1 (stereo unspecified) | 69 | –
O=C(Nc1cccc(Nc2ccc3c(/C=C/c4ccccc4)n[nH]c3c2)c1)C1CCCO1 (stereo unspecified) | 23 | –
O=C(Nc1cccc(Oc2ccc3c(/C=C/c4ccccc4)n[nH]c3c2)c1)c1cc(=O)[nH]c(=O)[nH]1 | 90 | –
O=C(c1cccc(NC(=O)C2CCOC2)c1)c1ccc2c(/C=C/c3ccccc3)n[nH]c2c1 (stereo unspecified) | 12 | –
Cc1nc(S)sc1CC(=O)Nc1cccc(C(=O)c2ccc3c(/C=C/c4ccccc4)n[nH]c3c2)c1 | 24 | –
O=C(Cc1ccccc1)C(=O)Nc1cccc(Oc2ccc3c(/C=C/c4ccccc4)n[nH]c3c2)c1 | 25 | –
O=C(Cc1cccnc1)Nc1cccc(C(=O)c2ccc3c(/C=C/c4ccccc4)n[nH]c3c2)c1 | 21 | –
O=C(c1cccc(NC(=O)C2CC3C=CCC(C3)C2)c1)c1ccc2c(/C=C/c3ccccc3)n[nH]c2c1 (stereo unspecified) | 56 | –
COc1ccc(C#N)c(C(=O)Nc2cccc(C(=O)c3ccc4c(/C=C/c5ccccc5)n[nH]c4c3)c2)c1 | -20 | –
Cc1cc(C(=O)Nc2cccc(Nc3ccc4c(/C=C/c5ccccc5)n[nH]c4c3)c2)oc(=O)c1 | -8 | –
CC1(C)OC(=O)[C@H](CC(=O)Nc2cccc(Nc3ccc4c(/C=C/c5ccccc5)n[nH]c4c3)c2)O1 | 20 | –
CC(=O)NC(C)(C)CC(=O)Nc1cccc(Nc2ccc3c(/C=C/c4ccccc4)n[nH]c3c2)c1 | -9 | –
CC(C)=CC1C(C(=O)Nc2cccc(Nc3ccc4c(/C=C/c5ccccc5)n[nH]c4c3)c2)C1(C)C (stereo unspecified) | 16 | –
CCNc1ccccc1C(=O)Nc1cccc(Nc2ccc3c(/C=C/c4ccccc4)n[nH]c3c2)c1 | 71 | –
O=C(Nc1cccc(Oc2ccc3c(/C=C/c4ccccc4)n[nH]c3c2)c1)C1CCCO1 (stereo unspecified) | 51 | –
O=C(Cc1cc(F)ccc1F)Nc1cccc(Nc2ccc3c(/C=C/c4ccccc4)n[nH]c3c2)c1 | 64 | –
CO[C@H](C(=O)Nc1cccc(Oc2ccc3c(/C=C/c4ccccc4)n[nH]c3c2)c1)c1ccccc1 | 30 | –
CC(C)=NOC(C)C(=O)Nc1cccc(Oc2ccc3c(/C=C/c4ccccc4)n[nH]c3c2)c1 (stereo unspecified) | 80 | –
COc1ccccc1/C=C/C(=O)Nc1cccc(Oc2ccc3c(/C=C/c4ccccc4)n[nH]c3c2)c1 | 17 | –
O=C(CCC(=O)N1CCCC1)Nc1cccc(Oc2ccc3c(/C=C/c4ccccc4)n[nH]c3c2)c1 | 48 | –

Source: ChEMBL document CHEMBL3880421, “Indazole compounds and pharmaceutical compositions for inhibiting protein kinases, and methods for their use” (2003)
